Assays:
[1] = molecular target: N-terminal domain of galectin-9 (Homo sapiens, UniProt O00182); type: cell-based; conditions: CHO wild-type cells, 1 mM
galectin-3 = galectin-3 (Homo sapiens, UniProt P17931); assay: Cell-based assay: inhibition of galectin-3 surface staining of SW480 cells; conditions: peptides at up to 1 mM
galectin-3 (full-length) = galectin-3 (full-length) (Homo sapiens, UniProt P17931); assay: Isothermal titration calorimetry, full-length galectin-3; type: binding
galectin-3 CRD = galectin-3 CRD (Homo sapiens, UniProt P17931); assay: Isothermal titration calorimetry, galectin-3 CRD; type: binding
Chain of galectin-3 CRD (P17931 118-248 limits assumed): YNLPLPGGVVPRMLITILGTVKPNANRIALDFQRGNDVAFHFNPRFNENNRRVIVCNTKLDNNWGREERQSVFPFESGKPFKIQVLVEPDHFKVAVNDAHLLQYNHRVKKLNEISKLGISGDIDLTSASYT

Chain of galectin-3 (full-length) (P17931 whole entry): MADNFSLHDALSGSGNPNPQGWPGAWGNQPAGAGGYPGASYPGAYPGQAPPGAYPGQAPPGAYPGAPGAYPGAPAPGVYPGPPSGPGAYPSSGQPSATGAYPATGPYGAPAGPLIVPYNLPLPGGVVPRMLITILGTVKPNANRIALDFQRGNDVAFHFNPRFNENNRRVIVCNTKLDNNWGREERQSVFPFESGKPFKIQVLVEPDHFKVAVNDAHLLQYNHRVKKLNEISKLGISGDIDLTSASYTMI
Chain of N-terminal domain of galectin-9 (O00182 1-148): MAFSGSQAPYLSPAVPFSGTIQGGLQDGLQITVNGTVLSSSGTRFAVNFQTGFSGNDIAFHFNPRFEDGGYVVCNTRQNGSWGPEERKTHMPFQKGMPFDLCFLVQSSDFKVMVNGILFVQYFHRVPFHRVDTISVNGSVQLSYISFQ
Chain of galectin-3 (P17931 whole entry): as the sequence (P17931 whole entry) above

Compound | inhibition of galectin-9 binding to cells (in words) [1] | inhibition of galectin-3 binding to cells (in words) (galectin-3) | Kd (galectin-3 (full-length)) | n (stoichiometry) (galectin-3 (full-length); full-length galectin-3, ITC) | –TΔS (galectin-3 (full-length); full-length galectin-3, ITC) | –ΔH (galectin-3 (full-length); full-length galectin-3, ITC) | Ka (galectin-3 (full-length); full-length galectin-3, ITC, 25 °C, pH 7.2) | Kd (galectin-3 CRD) | n (stoichiometry) (galectin-3 CRD; galectin-3 CRD, ITC) | –TΔS (galectin-3 CRD; galectin-3 CRD, ITC) | –ΔG (galectin-3 CRD; galectin-3 CRD, ITC) | –ΔH (galectin-3 CRD; galectin-3 CRD, ITC) | Ka (galectin-3 CRD; galectin-3 CRD, ITC, 25 °C, pH 7.2)
OC[C@H]1O[C@@H](O[C@H]2[C@H](O)[C@@H](O)C(O)O[C@@H]2CO)[C@H](O)[C@@H](O)[C@H]1O (mixture of isomers) [Lac, lactose] | inhibitory |  |  |  |  |  |  |  |  |  |  |  | 
CC(=O)N[C@H]1C(O)O[C@H](CO)[C@H](O)[C@@H]1O (some centres unmarked) [GalNAc, N-acetylgalactosamine] | inhibitory | less active than Lac |  |  |  |  |  |  |  |  |  |  | 
CC(=O)N[C@H]1C(O)O[C@H](CO)[C@H](O)[C@@H]1O[C@@H]1O[C@H](CO)[C@H](O)[C@H](O)[C@H]1O (stereo partly drawn) [TF, 2-acetamido-2-deoxy-3-O-(β-D-galactopyranosyl)-D-galactopyranose] |  |  | 245 µM | 0.82 | 13.8 kJ/mol | 36.6 kJ/mol | 0.40 ×10^–4 M^–1 | 248 µM | 0.93 | 38.1 kJ/mol | 20.7 kJ/mol | 58.79 kJ/mol | 0.40 ×10^–4 M^–1

— paper PMC4520625 (Biochemistry, 2015)
